Among the test systems are 786-0 renal; HCC-2998 colon; HS 578T breast; K-562 leukemia; MCF7 breast; MDA-MB-231 breast; NCI-H23 lung; OVCAR-5 ovarian; SN12C renal; UACC-62 melanoma.
Common to all, as to assay: NCI-60 cell line screen, 48 h

Results on nine compounds are retold here after PubChem BioAssay (NCI).

The structures appear in SMILES notation.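 Cultured in 96-well plates, cells were exposed to test compound for 48 hours across five concentrations. GI50 is the concentration that inhibits growth by half. TGI denotes the concentration required for complete inhibition of growth.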

Turning to `Cc1nc2c(n1C)C(=O)c1ccccc1C2=O`, the GI50 with 786-0 renal was more than 100 µM; in the assay on HCC-2998 colon, 67.6 µM; in the assay on HS 578T breast it was more than 100 µM; in the assay with K-562 leukemia it was 59.3 µM; in the assay on MCF7 breast, 46.1 µM; in the assay on MDA-MB-231 breast, more than 100 µM. In addition, the GI50 was 50.4 µM with NCI-H23 lung, more than 100 µM in the assay on OVCAR-5 ovarian, 49.4 µM in the assay on SN12C renal and 56 µM in the assay on UACC-62 melanoma. Further, the TGI with 786-0 renal, with HCC-2998 colon, with HS 578T breast, in the assay with K-562 leukemia, with MCF7 breast and in the assay on MDA-MB-231 breast was more than 100 µM in each case. The TGI in the assay with NCI-H23 lung, with OVCAR-5 ovarian, with SN12C renal and with UACC-62 melanoma was more than 100 µM each time.
For `C=C1CCC2(C#N)[C@H]3[C@H](CC[C@@H]2C)[C@@H](C)C[C@@H](CC(C)(C)NC(=O)CN2CCC2=O)[C@H]13` (some centres undefined), the GI50 was 13.7 µM with 786-0 renal; 7 µM with HCC-2998 colon; 4.79 µM in the assay on HS 578T breast; 3.69 µM with K-562 leukemia; 4.58 µM with MCF7 breast; 7.97 µM in the assay with MDA-MB-231 breast. Also, the GI50 in the assay on NCI-H23 lung was 10.4 µM; with OVCAR-5 ovarian, 10.7 µM; in the assay with SN12C renal it was 11.9 µM; with UACC-62 melanoma it was 6.54 µM. Besides, the TGI came to 37.8 µM in the assay on 786-0 renal; 22.8 µM in the assay with HCC-2998 colon; 30.7 µM with HS 578T breast; 53.1 µM with K-562 leukemia; 23.4 µM in the assay with MCF7 breast; 44.3 µM in the assay on MDA-MB-231 breast. The TGI turned out to be 36.7 µM in the assay on NCI-H23 lung, 22.5 µM in the assay on OVCAR-5 ovarian, 49.5 µM with SN12C renal and 20.1 µM with UACC-62 melanoma.
With `S=c1nc(N/N=C/c2ccco2)c2cn[nH]c2[nH]1`, the GI50 with 786-0 renal was more than 100 µM; with HCC-2998 colon, 22.4 µM; with HS 578T breast, 42.5 µM; in the assay with K-562 leukemia, 39.9 µM; in the assay with MCF7 breast, 3.6 µM; with MDA-MB-231 breast, more than 100 µM. In addition, the GI50 was more than 100 µM with NCI-H23 lung, more than 100 µM in the assay on OVCAR-5 ovarian, 83.7 µM in the assay with SN12C renal and 33.8 µM in the assay with UACC-62 melanoma. The TGI was more than 100 µM in the assay with 786-0 renal; 88.7 µM in the assay on HCC-2998 colon; more than 100 µM in the assay on HS 578T breast; more than 100 µM in the assay with K-562 leukemia; more than 100 µM with MCF7 breast; more than 100 µM with MDA-MB-231 breast. Moreover, the TGI in the assay on NCI-H23 lung, in the assay on OVCAR-5 ovarian, with SN12C renal and in the assay on UACC-62 melanoma was more than 100 µM each time.
Turning to `CC1=Nc2ccccc2/C1=C\c1c(C)[nH]c2ccccc12`, the TGI in the assay with 786-0 renal was 25.8 µM; in the assay on HCC-2998 colon, 30.1 µM; in the assay on HS 578T breast it was 47.2 µM; with K-562 leukemia, more than 100 µM; with MCF7 breast, 18.3 µM; with MDA-MB-231 breast, 33.3 µM. In addition, the TGI in the assay on NCI-H23 lung came out at 38.6 µM; in the assay on OVCAR-5 ovarian it was 50.9 µM; in the assay on SN12C renal, 72.5 µM; in the assay with UACC-62 melanoma, 25.1 µM.
With `OCc1ccc(-c2cscc2-c2ccc(CO)o2)o1`, the GI50 was more than 33.8 µM in the assay on 786-0 renal; 24.2 µM in the assay with HCC-2998 colon; more than 78.3 µM with HS 578T breast; 7.02 µM with K-562 leukemia; 0.57 µM with MCF7 breast; more than 100 µM in the assay with MDA-MB-231 breast. In addition, the GI50 with NCI-H23 lung was 64.6 µM; in the assay with OVCAR-5 ovarian, 0.216 µM; with SN12C renal, more than 100 µM; in the assay on UACC-62 melanoma, 0.435 µM. Besides, the TGI with 786-0 renal was more than 100 µM; in the assay on HCC-2998 colon, more than 96.6 µM; with HS 578T breast, more than 100 µM; in the assay with K-562 leukemia it was more than 100 µM; in the assay on MCF7 breast, 25.1 µM; with MDA-MB-231 breast, more than 100 µM. The TGI with NCI-H23 lung was more than 100 µM; in the assay with OVCAR-5 ovarian, 1.97 µM; in the assay with SN12C renal, more than 100 µM; in the assay with UACC-62 melanoma it was 2.2 µM.
With `COc1ncnc(S(=O)(=O)c2ccc(N=C3C(=O)N(CN4CCN(c5cc6c(cc5F)c(=O)c(C(=O)O)cn6C5CC5)CC4)c4ccc(Cl)cc43)cc2)c1OC`, the GI50 was 33.7 µM with 786-0 renal; 37.9 µM in the assay with HCC-2998 colon; 6.16 µM with HS 578T breast; 24.6 µM in the assay on K-562 leukemia; 34.1 µM in the assay with MCF7 breast; 28.5 µM with MDA-MB-231 breast. Further, the GI50 with NCI-H23 lung was more than 50 µM; in the assay with OVCAR-5 ovarian it was more than 50 µM; in the assay on SN12C renal it was 30.4 µM; in the assay with UACC-62 melanoma, 8.75 µM. The TGI in the assay on 786-0 renal, in the assay with HCC-2998 colon, in the assay with HS 578T breast, in the assay with K-562 leukemia, in the assay with MCF7 breast and with MDA-MB-231 breast was more than 50 µM in each case. Besides, the TGI in the assay on NCI-H23 lung, in the assay on OVCAR-5 ovarian, with SN12C renal and in the assay with UACC-62 melanoma was more than 50 µM throughout.
On to `COc1cc(C)c(C2NC(=O)c3ccccc3N2)cc1C` (centres undefined), for which the TGI is more than 100 µM in the assay with 786-0 renal; 25.9 µM in the assay with HCC-2998 colon; 0.908 µM in the assay on HS 578T breast; more than 52.2 µM in the assay with K-562 leukemia; more than 89 µM in the assay with MCF7 breast; more than 85.7 µM with MDA-MB-231 breast. Moreover, the TGI was more than 70.2 µM with NCI-H23 lung, more than 24.8 µM with OVCAR-5 ovarian, more than 100 µM in the assay with SN12C renal and more than 100 µM in the assay with UACC-62 melanoma.
For `Cc1c2c(c(C)c3c4c(oc13)CCCC4)C=NCC2`, the TGI is more than 100 µM with 786-0 renal; 36.1 µM in the assay on HCC-2998 colon; 53 µM with HS 578T breast; 37.4 µM in the assay on K-562 leukemia; 30.4 µM in the assay on MCF7 breast; 32.9 µM with MDA-MB-231 breast. The TGI in the assay with NCI-H23 lung came to 31.9 µM; in the assay on OVCAR-5 ovarian, 32.1 µM; in the assay with SN12C renal, 31.7 µM; in the assay with UACC-62 melanoma, 29.6 µM.
As for `O=C(c1ccccc1)c1c(NCC(O)CN2CCOCC2)n(Cc2ccccc2)c(=O)n(Cc2ccccc2)c1=O` (centres undefined), the GI50 with 786-0 renal is 54.1 µM; in the assay with HCC-2998 colon it was 1.26 µM; with HS 578T breast it was 55 µM; in the assay on K-562 leukemia it was 42.2 µM; with MCF7 breast, 48.2 µM; in the assay with MDA-MB-231 breast, 28.8 µM. In addition, the GI50 is 1.19 µM in the assay with NCI-H23 lung, 5.53 µM in the assay on OVCAR-5 ovarian, 46 µM in the assay with SN12C renal and 36.7 µM in the assay on UACC-62 melanoma. Also, the TGI was more than 100 µM with 786-0 renal; 4.86 µM in the assay on HCC-2998 colon; more than 100 µM with HS 578T breast; more than 100 µM with K-562 leukemia; more than 100 µM with MCF7 breast; more than 100 µM with MDA-MB-231 breast. Further, the TGI is more than 78.7 µM in the assay on OVCAR-5 ovarian, more than 100 µM in the assay on SN12C renal and more than 100 µM with UACC-62 melanoma.
